This is an account of results in ChEMBL document CHEMBL4425093, “Picrasidine N Is a Subtype-Selective PPARβ/δ Agonist” (J Nat Prod, 2016).

Test [1] deals with HepG2. Description: Induction of PPRE transcriptional activation in human HepG2 cells at 10 uM incubated for 24 hrs by dual luciferase reporter gene assay. The format is functional, cell-based.
For test [2], the system named is HepG2. Description: Upregulation of ANGPTL4 mRNA expression in human HepG2 cells transfected with PPARbeta/delta siRNA at 10 uM after 24 hrs by qRT-PCR method. The class given is functional, cell-based. (In general: In qPCR the cycle at which signal appears reflects the starting amount.)
Test [3] deals with T1, Peroxisome proliferator-activated receptor delta (Homo sapiens) (UniProt Q03181).
T1 sequence (whole entry): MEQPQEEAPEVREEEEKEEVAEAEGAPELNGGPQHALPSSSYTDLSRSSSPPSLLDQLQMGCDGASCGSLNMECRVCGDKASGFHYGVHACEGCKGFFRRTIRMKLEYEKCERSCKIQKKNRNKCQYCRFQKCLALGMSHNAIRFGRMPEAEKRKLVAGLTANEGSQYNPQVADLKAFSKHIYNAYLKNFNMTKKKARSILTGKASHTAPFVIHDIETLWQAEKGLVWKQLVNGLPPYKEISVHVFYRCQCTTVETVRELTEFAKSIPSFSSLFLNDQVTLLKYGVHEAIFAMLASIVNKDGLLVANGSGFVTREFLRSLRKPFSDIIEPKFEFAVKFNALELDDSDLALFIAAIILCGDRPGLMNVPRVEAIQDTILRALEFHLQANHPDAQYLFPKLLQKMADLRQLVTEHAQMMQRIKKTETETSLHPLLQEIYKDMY
The test is described as follows: Agonist activity at full length human N-terminal Myc-tagged PPARbeta/delta expressed in human HepG2 cells coexpressing RXRalpha assessed as transcriptional activation of PPRE incubated for 24 hrs by dual luciferase reporter gene assay. The class given is cell-based. On the technique in general: Reporter assays use an easily measured gene product as a stand-in for the process of interest.

Test [4] addresses T1, Peroxisome proliferator-activated receptor delta (Homo sapiens). Description: Agonist activity at GAL4-DBD fused human PPARbeta/delta-LBD (136 to 441 residues) expressed in human HepG2 cells after 24 hrs by dual luciferase reporter gene assay. The format is cell-based.
The target in test [5] is T2, Peroxisome proliferator-activated receptor alpha (Homo sapiens) (UniProt Q07869).
T2 sequence (whole entry): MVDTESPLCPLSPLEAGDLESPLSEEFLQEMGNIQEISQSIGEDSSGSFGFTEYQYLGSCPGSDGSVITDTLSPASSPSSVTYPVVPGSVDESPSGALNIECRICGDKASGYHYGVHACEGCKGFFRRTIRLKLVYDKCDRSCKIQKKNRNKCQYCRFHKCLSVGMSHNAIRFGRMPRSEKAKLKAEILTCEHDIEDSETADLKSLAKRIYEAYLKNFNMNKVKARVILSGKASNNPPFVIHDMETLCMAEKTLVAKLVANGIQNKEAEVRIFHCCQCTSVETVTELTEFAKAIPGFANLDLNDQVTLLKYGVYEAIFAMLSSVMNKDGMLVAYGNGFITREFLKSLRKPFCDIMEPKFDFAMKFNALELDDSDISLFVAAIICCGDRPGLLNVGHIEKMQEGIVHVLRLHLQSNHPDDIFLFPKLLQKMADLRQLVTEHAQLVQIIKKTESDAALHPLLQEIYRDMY
Description: Agonist activity at GAL4-DBD fused human PPARalpha-LBD (159 to 468 residues) expressed in human HepG2 cells at 0.1 to 20 uM after 24 hrs by dual luciferase reporter gene assay. The format is cell-based.

The target in test [6] is T3, Peroxisome proliferator-activated receptor gamma (Homo sapiens) (UniProt P37231).
T3 sequence (whole entry): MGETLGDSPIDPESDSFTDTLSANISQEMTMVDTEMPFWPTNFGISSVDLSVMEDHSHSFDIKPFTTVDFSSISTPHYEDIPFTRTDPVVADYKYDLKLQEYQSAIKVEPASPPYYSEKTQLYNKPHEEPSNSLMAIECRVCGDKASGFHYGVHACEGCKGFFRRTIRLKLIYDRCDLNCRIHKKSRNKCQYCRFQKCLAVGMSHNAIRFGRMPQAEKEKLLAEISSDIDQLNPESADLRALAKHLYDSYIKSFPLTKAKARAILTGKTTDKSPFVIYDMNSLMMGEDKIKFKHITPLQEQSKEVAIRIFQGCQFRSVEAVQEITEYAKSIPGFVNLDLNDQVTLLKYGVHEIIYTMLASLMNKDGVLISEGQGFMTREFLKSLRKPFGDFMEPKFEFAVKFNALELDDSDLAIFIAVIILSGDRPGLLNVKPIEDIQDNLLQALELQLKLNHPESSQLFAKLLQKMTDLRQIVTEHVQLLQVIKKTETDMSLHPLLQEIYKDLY
The test is described as follows: Agonist activity at GAL4-DBD fused human PPARgamma-LBD (157 to 475 residues) expressed in human HepG2 cells at 0.1 to 20 uM after 24 hrs by dual luciferase reporter gene assay. The format is cell-based.

Test [7] concerns the target T1, Peroxisome proliferator-activated receptor delta (Homo sapiens). Description: Agonist activity at PPARbeta/delta in human HepG2 cells assessed as induction of ANGPTL4 mRNA expression incubated for 24 hrs by qRT-PCR method. The class given is cell-based.
For test [8] the target is unchanged. The test is described as follows: Agonist activity PPARbeta/delta in human MCF7 cells assessed as induction of ANGPTL4 mRNA expression at 10 uM incubated for 24 hrs by qRT-PCR method. The format is cell-based.
The target is the same in test [9]. The test is described as follows: Agonist activity PPARbeta/delta in human PC3 cells assessed as induction of ANGPTL4 mRNA expression at 10 uM incubated for 24 hrs by qRT-PCR method. The class given is cell-based.
Test [10] shares this target. Description: Agonist activity at GAL4-DBD fused human PPARbeta/delta-LBD (136 to 441 residues) expressed in human HepG2 cells at 10 uM by luciferase reporter gene based mammalian one hybrid assay. The class given is cell-based.

Molecules are shown by their SMILES. The source made the active and inactive calls. The rule behind the calls is not given here.

Consider `Cc1cc(SCc2sc(-c3ccc(C(F)(F)F)c(F)c3)nc2C)ccc1OCC(=O)O`, for which the outcome in the test with HepG2 [1] was Active. The outcome in the test with HepG2 [2] was inactive.
On to `COc1cnc(CCn2ccc3c4n(c(=O)c(=O)cc2-4)c2ccccc32)c2c1c1ccccc1n2OC`, for which the result (with HepG2 [1]; in [6]; in test [8]) was Active. The Activity result in test [3], in test [4] and in test [7] was “Dose-dependent effect” throughout. Moreover, the result (in test [5]; in the test on HepG2 [2]; in test [9]) was inactive.
As to `COc1cccc2c1[nH]c1c(CCn3ccc4c5n(c(=O)c(=O)cc3-5)c3ccccc43)ncc(OC)c12`, the outcome in test [10] was inactive.
Same read-out and setting: the same measure for `CCCCn1ccc2c3n(c(=O)c(=O)cc1-3)c1ccccc21`: “inactive”.
